EC50 data for 13 compounds are collected here from US8426602B2, “Heteroaryl-substituted dicyanopyridines and their use” (Bayer Intellectual Property GmbH, priority 2008, dated 2013).

Format in all cases: cell-based
Assay [1] concerns the target T1, adenosine A1 receptor (Homo sapiens, UniProt P30542).
T1 construct: expressed in transfected cells; host or cells: CHO (Chinese Hamster Ovary)
T1 sequence (P30542 1-326): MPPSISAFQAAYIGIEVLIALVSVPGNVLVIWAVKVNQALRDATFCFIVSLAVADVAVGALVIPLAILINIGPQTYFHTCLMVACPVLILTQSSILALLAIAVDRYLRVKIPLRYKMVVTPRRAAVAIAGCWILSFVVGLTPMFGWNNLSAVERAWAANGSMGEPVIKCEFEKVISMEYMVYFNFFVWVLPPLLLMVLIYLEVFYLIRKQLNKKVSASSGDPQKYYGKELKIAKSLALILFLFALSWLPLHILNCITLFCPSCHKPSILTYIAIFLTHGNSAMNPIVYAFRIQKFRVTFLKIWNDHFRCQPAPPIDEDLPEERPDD
The experiment in a line: Indirect determination of adenosine agonism by way of gene expression (luciferase), A1 cells. To be noted: stably transfected CHO cells; 1 μM forskolin; 50% inhibition of luciferase response. From the text: (§1) B-1. Indirect Determination of the Adenosine Agonism by Way of Gene Expression
(§2) Cells of the CHO (Chinese Hamster Ovary) permanent line are transfected stably with the cDNA for the adenosine receptor subtypes A1, A2a and A2b. The adenosine A1 receptors are coupled to the adenylate cyclase by way of Gi proteins, while the adenosine A2a and A2b receptors are coupled by way of Gs proteins. In correspondence with this, the formation of cAMP in the cell is inhibited or stimulated, respectively. After that, expression of the luciferase is modulated by way of a cAMP-dependent promoter. The luciferase test is optimized, with the aim of high sensitivity and reproducibility, low variance and good suitability for implementation on a robot system, by varying several test parameters, such as cell density, duration of the growth phase and the test incubation, forskolin concentration and medium composition. The following test protocol is used for pharmacologically characterizing cells and for the robot-assisted substance screening:
(§3) The stock cultures are grown, at 37° C. and under 5% CO2, in DMEM/F12 medium containing 10% FCS (fetal calf serum) and in each case split 1:10 after 2-3 days. Test cultures are seeded in 384-well plates with 2000 cells per well and grown at 37° C. for approx. 48 hours. The medium is then replaced with a physiological sodium chloride solution (130 mM sodium chloride, 5 mM potassium chloride, 2 mM calcium chloride, 20 mM HEPES, 1 mM magnesium chloride hexahydrate, 5 mM sodium bicarbonate, pH 7.4). The substances to be tested, which are dissolved in DMSO, are pipetted into the test cultures (maximum final concentration of DMSO in the test mixture: 0.5%) in a dilution series of from 5×10^−11 M to 3×10^−6 M (final concentration). 10 minutes later, forskolin is added to the A1 cells and all the cultures are subsequently incubated at 37° C. for four hours. After that, 35 μl of a solution which is composed of 50% lysis reagent (30 mM disodium hydrogenphosphate, 10% glycerol, 3% TritonX100, 25 mM TrisHCl, 2 mM dithiotreitol (DTT), pH 7.8) and 50% luciferase substrate solution (2.5 mM ATP, 0.5 mM luciferin, 0.1 mM coenzyme A, 10 mM tricine, 1.35 mM magnesium sulfate, 15 mM DTT, pH 7.8) are added to the test cultures, which are shaken for approx. 1 minute and the luciferase activity is measured using a camera system. The EC50 values are determined, i.e., the concentrations at which 50% of the luciferase response is inhibited in the case of the A1 cell, and, respectively, 50% of the maximum stimulation with the corresponding substance is achieved in the case of the A2b and A2a cells. […] Pharmacol., 357, 1-9 (1998)).

The target in assay [2] is T2, adenosine A2a receptor (Homo sapiens, UniProt P29274).
T2 construct: expressed in transfected cells; host or cells: CHO (Chinese Hamster Ovary)
The assay is described as follows: Indirect determination of adenosine agonism by way of gene expression (luciferase), A2a cells. The following applies: stably transfected CHO cells; 50% of maximum stimulation of luciferase.
Source text: as §1, §2, §3

The target in assay [3] is T3, adenosine A2b receptor (Homo sapiens, UniProt P29275).
T3 construct: expressed in transfected cells; host or cells: CHO (Chinese Hamster Ovary)
T3 sequence (P29275 1-332): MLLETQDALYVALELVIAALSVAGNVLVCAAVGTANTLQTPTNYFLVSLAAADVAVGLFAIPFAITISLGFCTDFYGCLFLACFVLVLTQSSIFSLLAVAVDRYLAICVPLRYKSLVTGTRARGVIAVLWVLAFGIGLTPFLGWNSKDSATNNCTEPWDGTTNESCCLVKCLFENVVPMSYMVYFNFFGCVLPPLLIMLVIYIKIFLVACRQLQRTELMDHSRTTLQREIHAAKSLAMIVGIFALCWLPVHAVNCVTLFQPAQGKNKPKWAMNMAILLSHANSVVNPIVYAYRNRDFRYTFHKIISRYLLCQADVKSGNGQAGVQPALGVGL
The experiment in a line: Indirect determination of adenosine agonism by way of gene expression (luciferase), A2b cells. The following applies: stably transfected CHO cells; 50% of maximum stimulation of luciferase.
Source text: as §1, §2, §3

For orientation: EC50 means the midpoint of the concentration-response curve. A higher EC50 goes with a less potent agent.

T2 sequence (P29274 whole entry): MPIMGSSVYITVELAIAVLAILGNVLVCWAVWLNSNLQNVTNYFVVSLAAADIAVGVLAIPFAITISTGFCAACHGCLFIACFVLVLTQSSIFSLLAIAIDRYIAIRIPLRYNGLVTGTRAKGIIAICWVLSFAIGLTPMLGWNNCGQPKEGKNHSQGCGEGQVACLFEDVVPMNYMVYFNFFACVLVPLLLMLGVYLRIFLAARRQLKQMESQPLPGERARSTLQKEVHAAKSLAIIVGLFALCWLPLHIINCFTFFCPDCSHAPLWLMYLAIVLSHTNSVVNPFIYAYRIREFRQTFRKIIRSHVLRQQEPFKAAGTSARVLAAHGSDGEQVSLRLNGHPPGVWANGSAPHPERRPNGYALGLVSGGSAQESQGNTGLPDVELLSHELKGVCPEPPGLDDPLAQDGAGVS

Regarding `N#Cc1c(N)nc(SCc2cccc(C(N)=O)c2)c(C#N)c1-c1cccs1` [Example 37, 3-({[6-Amino-3,5-dicyano-4-(2-thienyl)pyridin-2-yl]thio}methyl)benzamide], the values for the half-maximal effective concentration (EC50) in assay [1], in assay [2] and in assay [3] were 0.05 nM, 88 nM and 28 nM, respectively.

Consider `N#Cc1c(N)nc(SCc2csc(-c3ccc(Cl)cc3)n2)c(C#N)c1-c1cnc[nH]1` [Example 8], for which the EC50 worked out at 1.2 nM in assay [1], 275 nM in assay [2] and 715 nM in assay [3].

`N#Cc1c(SCc2csc(-c3ccc(Cl)cc3)n2)nc(N2CC(O)C2)c(C#N)c1-c1nccs1` [Example 22]: the EC50 came out at 0.6 nM in assay [1], 2470 nM in assay [2] and 1280 nM in assay [3].

On to `N#Cc1c(N)nc(SCc2csc(-c3ccc(Cl)cc3)n2)c(C#N)c1-c1cscn1` [Example 1, 2-Amino-6-([2-(4-chlorophenyl)-1,3-thiazol-4-yl]methylsulfanyl)-4-(1,3-thiazol-4-yl)pyridine-3,5-dicarbonitrile], for which the figures for the half-maximal effective concentration (EC50) in assay [1], in assay [2] and in assay [3] were 0.5 nM, 3000 nM and 1570 nM, respectively.

As for `N#Cc1c(SCc2csc(-c3ccc(Cl)cc3)n2)nc(N2CC[C@@H](O)C2)c(C#N)c1-c1cncs1` [Example 47, 2-({[2-(4-Chlorophenyl)-1,3-thiazol-4-yl]methyl}sulfanyl)-6-[(3R)-3-hydroxypyrrolidin-1-yl]-4-(1,3-thiazol-5-yl)pyridine-3,5-dicarbonitrile], the 50% effective concentration (EC50) stood at 0.5 nM in assay [1], 3000 nM in assay [2] and 3000 nM in assay [3].

On to `CC(O)Cn1ccc(-c2c(C#N)c(N)nc(SCc3csc(-c4ccc(Cl)cc4)n3)c2C#N)n1` (stereo not drawn) [Example 30, 2-Amino-6-([2-(4-chlorophenyl)-1,3-thiazol-4-yl]methylsulfanyl)-4-[1-(2-hydroxypropyl)-1H-pyrazol-3-yl]pyridine-3,5-dicarbonitrile], for which the results for the concentration giving a half-maximal response (EC50) in assay [1], in assay [2] and in assay [3] were 1.9 nM, 2000 nM and 1410 nM, respectively.

Take `N#Cc1c(N)nc(SCc2csc(-c3ccc(Cl)cc3)n2)c(C#N)c1-c1cccs1` [Example 32, 2-Amino-6-({[2-(4-chlorophenyl)-1,3-thiazol-4-yl]methyl}sulfanyl)-4-thiophen-2-ylpyridine-3,5-dicarbonitrile]: the values for the EC50 in assay [1], in assay [2] and in assay [3] were 0.3 nM, 184 nM and 34 nM, respectively.

For the compound `N#Cc1c(NC[C@H](O)CO)nc(SCc2csc(-c3ccc(Cl)cc3)n2)c(C#N)c1-c1nccs1` [Example 21], the figures for the half-maximal effective concentration (EC50) in assay [1], in assay [2] and in assay [3] were 0.5 nM, 378 nM and 3000 nM, respectively.

In the case of `N#Cc1c(N)nc(SCc2coc(-c3ccc(Cl)cc3)n2)c(C#N)c1-c1cn[nH]c1` [Example 12], the EC50 is 2.4 nM in assay [1], 3000 nM in assay [2] and 3000 nM in assay [3].

Consider `N#Cc1c(SCc2csc(-c3ccc(Cl)cc3)n2)nc(N2CC(O)C2)c(C#N)c1-c1cncs1` [Example 16, 2-([2-(4-Chlorophenyl)-1,3-thiazol-4-yl]methylsulfanyl)-6-(3-hydroxyazetidin-1-yl)-4-(1,3-thiazol-5-yl)pyridine-3,5-dicarbonitrile], for which the figures for the EC50 in assay [1], in assay [2] and in assay [3] were 0.4 nM, 3000 nM and 3000 nM, respectively.

In the case of `N#Cc1c(N)nc(SCc2coc(-c3ccc(Cl)cc3)n2)c(C#N)c1-c1cncs1` [Example 4, 2-Amino-6-([2-(4-chlorophenyl)-1,3-oxazol-4-yl]methylsulfanyl)-4-(1,3-thiazol-5-yl)pyridine-3,5-dicarbonitrile], the EC50 was found to be 0.9 nM in assay [1], 3000 nM in assay [2] and 3000 nM in assay [3].

As to `N#Cc1c(SCc2csc(-c3ccc(Cl)cc3)n2)nc(N2CC(O)C2)c(C#N)c1-c1cc[nH]n1` [Example 27], the concentration for a half-maximal effect (EC50) in assay [1] is 1.1 nM; in assay [2], 6500 nM; in assay [3], 6500 nM.

Turning to `N#Cc1c(SCc2coc(-c3ccc(Cl)cc3)n2)nc(N2CC(O)C2)c(C#N)c1-c1nccs1` [Example 20], the figures for the concentration giving a half-maximal response (EC50) in assay [1], in assay [2] and in assay [3] were 0.5 nM, 3000 nM and 1800 nM, respectively.
